Data published in PubChem BioAssay AID248 (DTP/NCI, 2004).
“And” between values parts separate entries of the source, which are not always exact repeats. Identical values can stand only once. Inconclusive results and toxic doses are left out.

Test system: L1210 leukemia ip in BDF1 mice, survival T/C
Assay: NCI In Vivo Anticancer Drug Screen. Data for tumor model L1210 Leukemia (intraperitoneal) in B6D2F1 (BDF1) mice
Details: endpoint: mean survival time, higher = longer survival
Procedure, shortened: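 Ratio derived from survival: compound-dosed mice over vehicle-dosed mice, all bearing a transplantable tumor.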

[1] = dose: 50.0 mg/kg/injection, schedule: Q01DX001 (ip), vehicle: saline
[2] = dose: 100.0 mg/kg/injection, schedule: Q01DX001 (ip), vehicle: saline
[3] = dose: 200.0 mg/kg/injection, schedule: Q01DX001 (ip), vehicle: saline
[4] = dose: 400.0 mg/kg/injection, schedule: Q01DX001 (ip), vehicle: saline
[5] = dose: 100.0 mg/kg/injection, schedule: Q01DX001 (ip), vehicle: Klucel (hydroxypropylcellulose) (HPC)
[6] = dose: 200.0 mg/kg/injection, schedule: Q01DX001 (ip), vehicle: Klucel (hydroxypropylcellulose) (HPC)
[7] = dose: 100.0 mg/kg/injection, schedule: Q04DX003 (ip), vehicle: Klucel (hydroxypropylcellulose) (HPC)
[8] = dose: 200.0 mg/kg/injection, schedule: Q04DX003 (ip), vehicle: Klucel (hydroxypropylcellulose) (HPC)
[9] = dose: 400.0 mg/kg/injection, schedule: Q04DX003 (ip), vehicle: Klucel (hydroxypropylcellulose) (HPC)
[10] = dose: 100.0 mg/kg/injection, schedule: Q04DX003 (ip), vehicle: saline with Tween-80
[11] = dose: 200.0 mg/kg/injection, schedule: Q04DX003 (ip), vehicle: saline with Tween-80
[12] = dose: 400.0 mg/kg/injection, schedule: Q04DX003 (ip), vehicle: saline with Tween-80
[13] = dose: 100.0 mg/kg/injection, schedule: Q01DX009 (ip), vehicle: saline with Tween-80
[14] = dose: 200.0 mg/kg/injection, schedule: Q01DX009 (ip), vehicle: saline with Tween-80
[15] = dose: 400.0 mg/kg/injection, schedule: Q01DX009 (ip), vehicle: saline with Tween-80
[16] = dose: 200.0 mg/kg/injection, schedule: Q01DX009 (ip), vehicle: Klucel (hydroxypropylcellulose) (HPC)
[17] = dose: 100.0 mg/kg/injection, schedule: Q04DX003 (ip), vehicle: other
[18] = dose: 200.0 mg/kg/injection, schedule: Q04DX003 (ip), vehicle: other
[19] = dose: 400.0 mg/kg/injection, schedule: Q04DX003 (ip), vehicle: other

With `CCCCCCCCCCSc1ncnc2c1ncn2CO` the T/C [1] was 91 % of control, the T/C [2] was 101 % of control and the T/C [3] was 117 % of control. The T/C [4] was 120 % of control.
For `COC1(C(=O)OOC(C)(C)C)CC1(c1ccccc1)c1ccccc1` (stereo not drawn), the T/C (dose: 50.0 mg/kg/injection, schedule: Q01DX001 (ip), vehicle: Klucel (hydroxypropylcellulose) (HPC)) was 107 % of control, the T/C [5] was 102 % of control and the T/C [6] was 100 % of control.
With `O=[N+]([O-])c1c(Br)ncn1Cc1ccccc1` the T/C (dose: 100.0 mg/kg/injection, schedule: Q04DX003 (ip), vehicle: acetone) was 99 % of control and the T/C (dose: 200.0 mg/kg/injection, schedule: Q04DX003 (ip), vehicle: acetone) was 96 % of control.
`c1ccc(-c2nnn(CCn3nnc(-c4ccccc4)n3)n2)cc1` was tested, and the T/C [7] was 102 % of control, the T/C [8] was 104 % of control and the T/C [9] was 98 % of control.
`CCOC(=O)c1c(-c2cc(OC)c(OC)c(OC)c2)csc1NC(=O)c1ccccc1` was tested, and the T/C (dose: 50.0 mg/kg/injection, schedule: Q04DX003 (ip), vehicle: saline with Tween-80) was 89 % of control, the T/C [10] was 105 % of control and the T/C [11] was 90 % of control. For the same molecule, the T/C [12] was 90 % of control.
With `COc1ccc(Cl)cc1NC(=O)Oc1ccc(Br)cc1Br` the T/C [13] was 94 % of control, the T/C [14] was 104 % of control and the T/C [15] was 99 % of control.
With `O=C(Nc1ccc(Br)cc1)Oc1ccc(Nc2ccccc2)cc1` the T/C (dose: 100.0 mg/kg/injection, schedule: Q01DX009 (ip), vehicle: Klucel (hydroxypropylcellulose) (HPC)) was 98 % of control, the T/C [16] was 89 % of control and the T/C (dose: 400.0 mg/kg/injection, schedule: Q01DX009 (ip), vehicle: Klucel (hydroxypropylcellulose) (HPC)) was 98 % of control.
In the case of `NS(=O)(=O)c1ccc(N=Nc2ccc([As](=O)(O)O)cc2)cc1`, the T/C [2] is reported as 98 % of control, the T/C [3] is reported as 98 % of control and the T/C [4] is reported as 98 % of control.
With `CCOc1ccccc1NC(=O)C(Br)C(Br)C(=O)O` (stereo not drawn) the T/C [13] was 96 % of control, the T/C [10] was 100 % of control and the T/C [14] was 97 % of control. The T/C [11] was 95 % of control, the T/C [15] was 96 % of control and the T/C [12] was 101 % of control.
In the case of `CCCCCCCCCCCCCCCc1ccc([N+](=O)[O-])c(O)c1`, the T/C [17] is reported as 98 % of control, the T/C [18] is reported as 101 % of control and the T/C [19] is reported as 101 % of control.
For `COC(=O)C(=Cc1ccccc1)C(=O)OC`, the T/C (dose: 100.0 mg/kg/injection, schedule: Q04DX002 (ip), vehicle: Klucel (hydroxypropylcellulose) (HPC)) was 95 % of control, the T/C (dose: 200.0 mg/kg/injection, schedule: Q04DX002 (ip), vehicle: Klucel (hydroxypropylcellulose) (HPC)) was 95 % of control and the T/C (dose: 400.0 mg/kg/injection, schedule: Q04DX002 (ip), vehicle: Klucel (hydroxypropylcellulose) (HPC)) was 92 % of control.
For `O=C(/C(=C\c1ccccc1)c1ccccc1)c1ccc(O)cc1`, the T/C [2] was 98 % of control, the T/C [3] was 101 % of control and the T/C [4] was 101 % of control.
With `CNC(=O)OCCOC(=O)NC` the T/C (dose: 100.0 mg/kg/injection, schedule: Q01DX001 (ip), vehicle: other) was 98 % of control, the T/C (dose: 100.0 mg/kg/injection, schedule: Q01DX009 (ip), vehicle: other) was 96 % of control and the T/C [17] was 102 % of control. For the same molecule, the T/C (dose: 200.0 mg/kg/injection, schedule: Q01DX001 (ip), vehicle: other) was 109 % of control, the T/C (dose: 200.0 mg/kg/injection, schedule: Q01DX009 (ip), vehicle: other) was 102 % of control and the T/C [18] was 97 % of control. The T/C (dose: 400.0 mg/kg/injection, schedule: Q01DX001 (ip), vehicle: other) was 98 % of control, the T/C (dose: 400.0 mg/kg/injection, schedule: Q01DX009 (ip), vehicle: other) was 89 % of control and the T/C [19] was 111 % of control.
`CCCOCCOCCOC(C)Oc1ccccc1OC` (stereo not drawn) was tested, and the T/C (dose: 100.0 mg/kg/injection, schedule: Q04DX002 (ip), vehicle: saline) was 92 % of control, the T/C (dose: 200.0 mg/kg/injection, schedule: Q04DX002 (ip), vehicle: saline) was 88 % of control and the T/C (dose: 400.0 mg/kg/injection, schedule: Q04DX002 (ip), vehicle: saline) was 95 % of control.
For `CCCCCCCCCCCCCCCCCCS(=O)(=O)CCCl`, the T/C (dose: 25.0 mg/kg/injection, schedule: Q04DX003 (ip), vehicle: Klucel (hydroxypropylcellulose) (HPC)) was 107 % of control, the T/C (dose: 50.0 mg/kg/injection, schedule: Q04DX003 (ip), vehicle: Klucel (hydroxypropylcellulose) (HPC)) was 100 % of control and the T/C [7] was 96 % of control. The T/C [8] was 93 % of control and the T/C [9] was 91 % of control.
For `O=C(Cc1ccccc1)NC(CSSCC(NC(=O)Cc1ccccc1)C(=O)O)C(=O)O` (stereo not drawn), the T/C (dose: 88.0 mg/kg/injection, schedule: Q01DX009 (ip), vehicle: Klucel (hydroxypropylcellulose) (HPC)) was 93 % of control, the T/C (dose: 100.0 mg/kg/injection, schedule: Q01DX009 (ip), vehicle: saline) was 100 % of control and the T/C [10] was 95 % of control. For the same molecule, the T/C (dose: 100.0 mg/kg/injection, schedule: Q04DX003 (ip), vehicle: saline) was 105 % of control and 97 % of control, the T/C (dose: 132.0 mg/kg/injection, schedule: Q01DX009 (ip), vehicle: Klucel (hydroxypropylcellulose) (HPC)) was 90 % of control and the T/C [16] was 100 % of control. The T/C [11] was 98 % of control, the T/C (dose: 200.0 mg/kg/injection, schedule: Q04DX003 (ip), vehicle: saline) was 107 % of control and 100 % of control and the T/C (dose: 400.0 mg/kg/injection, schedule: Q01DX009 (ip), vehicle: saline) was 103 % of control. For the same molecule, the T/C [12] was 98 % of control and the T/C (dose: 400.0 mg/kg/injection, schedule: Q04DX003 (ip), vehicle: saline) was 96 % of control and 100 % of control.
`O=C(Nc1cccc(Cl)c1)OCC#CCCl` was tested, and the T/C (dose: 50.0 mg/kg/injection, schedule: Q01DX001 (ip), vehicle: saline sonified) was 97 % of control.
In the case of `CNC1=C(N2CC2)C(=O)C(NC)=C(N2CC2)C1=O`, the T/C (dose: 0.01 mg/kg/injection, schedule: Q01DX009 (ip), vehicle: Klucel (hydroxypropylcellulose) (HPC)) is reported as 97 % of control and 102 % of control, the T/C (dose: 0.02 mg/kg/injection, schedule: Q01DX009 (ip), vehicle: Klucel (hydroxypropylcellulose) (HPC)) is reported as 100 % of control and 101 % of control and the T/C (dose: 0.04 mg/kg/injection, schedule: Q01DX009 (ip), vehicle: Klucel (hydroxypropylcellulose) (HPC)) is reported as 109 % of control and 119 % of control. For the same molecule, the T/C (dose: 0.05 mg/kg/injection, schedule: Q01DX009 (ip), vehicle: saline) was 106 % of control, the T/C (dose: 0.09 mg/kg/injection, schedule: Q04DX003 (ip), vehicle: Klucel (hydroxypropylcellulose) (HPC)) was 110 % of control and the T/C (dose: 0.1 mg/kg/injection, schedule: Q01DX009 (ip), vehicle: saline) was 118 % of control. The T/C (dose: 0.1 mg/kg/injection, schedule: Q04DX003 (ip), vehicle: saline) was 103 % of control, the T/C (dose: 0.19 mg/kg/injection, schedule: Q01DX009 (ip), vehicle: Klucel (hydroxypropylcellulose) (HPC)) was 161 % of control and the T/C (dose: 0.2 mg/kg/injection, schedule: Q01DX009 (ip), vehicle: saline) was 173 % of control. The T/C (dose: 0.2 mg/kg/injection, schedule: Q04DX003 (ip), vehicle: saline) was 112 % of control, the T/C (dose: 0.37 mg/kg/injection, schedule: Q01DX001 (ip), vehicle: saline) was 108 % of control and the T/C (dose: 0.39 mg/kg/injection, schedule: Q01DX009 (ip), vehicle: Klucel (hydroxypropylcellulose) (HPC)) was 112 % of control and 88 % of control. For the same molecule, the T/C (dose: 0.39 mg/kg/injection, schedule: Q04DX003 (ip), vehicle: Klucel (hydroxypropylcellulose) (HPC)) was 156 % of control, the T/C (dose: 0.78 mg/kg/injection, schedule: Q04DX003 (ip), vehicle: Klucel (hydroxypropylcellulose) (HPC)) was 112 % of control and 115 % of control and the T/C (dose: 0.8 mg/kg/injection, schedule: Q04DX003 (ip), vehicle: saline) was 157 % of control.
For `O=C/C=C/c1cccc([N+](=O)[O-])c1`, the T/C [1] was 102 % of control, the T/C [2] was 107 % of control and the T/C [3] was 111 % of control.
In the case of `Cc1ccc(-n2c(=O)c(N=Nc3ccc(Br)cc3)c(O)n(-c3ccccc3C)c2=S)cc1`, the T/C [5] is reported as 95 % of control, the T/C [6] is reported as 88 % of control and the T/C (dose: 400.0 mg/kg/injection, schedule: Q01DX001 (ip), vehicle: Klucel (hydroxypropylcellulose) (HPC)) is reported as 88 % of control.
For `C=C1CCC(C)(C2(c3ccccc3)OCCO2)CC1`, the T/C (dose: 100.0 mg/kg/injection, schedule: Q04DX002 (ip), vehicle: saline with Tween-80) was 98 % of control, the T/C (dose: 200.0 mg/kg/injection, schedule: Q04DX002 (ip), vehicle: saline with Tween-80) was 95 % of control and the T/C (dose: 400.0 mg/kg/injection, schedule: Q04DX002 (ip), vehicle: saline with Tween-80) was 91 % of control.
